The values below come from PubChem BioAssay (NCI).

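Five compound concentrations were applied to cells in 96-well plates for 48 hours; endpoints were derived by simple linear interpolation of the resulting dose-response curve. TGI denotes the concentration required for complete inhibition of growth.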

Common to all, as to assay: inhibition of tumour cell growth, NCI panel, 48 h
Test [1] deals with NCI-H23 lung.
Test [2] relates to A549 NSCLC.
Test [3] deals with SW-620 colon.
The subject of test [4] is NCI-H226 lung.
The subject of test [5] is U251 CNS.
For test [6], the system named is NCI-H522 lung.
In test [7] the test system is HOP-62 NSCLC.
Test [8] deals with LOX IMVI melanoma.
Test [9] deals with K-562 leukemia.
The subject of test [10] is SF-268 CNS.
In test [11] the test system is RXF 393 renal.

For the molecule `Oc1c2c(c3c4c1N=CC=4CCN=3)-c1c(Br)cc(Br)cc1CCN2`, the TGI in test [1] came out at 3.88 µM; in test [2] it was 10.3 µM; in [3] it was 6.03 µM; in [4], 16.8 µM; in test [5] it was 12.2 µM; in test [6], 4.2 µM. The TGI stood at 29.8 µM in test [7]; 4.06 µM in [8]; 7.57 µM in [9]; 15.5 µM in test [10]; 20.2 µM in test [11].
